{"source": "patent US20240189289A1", "about": "“INHIBITORS OF EPHB3 SIGNALING” (The Brigham and Women`s Hospital, Inc., priority 2021, published 2024)", "key": {"[1]": {"experiment": "Mouse liver microsome stability", "format": "in vitro ADME", "details": "mouse liver microsomes; read-out: mouse liver microsome stability T1/2"}, "microglia": {"tested_on": "microglia", "experiment": "Neonatal murine microglia stimulated with LPS: qPCR", "format": "cell-based, mouse", "details": "induced by LPS stimulation", "procedure": "RNA isolation, cDNA synthesis and qPCR. RNA was extracted from in vitro generated samples with RNeasy Mini kit (#74106, QIAGEN) and cDNA was prepared by using the High-Capacity cDNA Reverse Transcription Kit (#4368813, Life Technologies), both according to the manufacturer's protocol. Gene expression was measured by qPCR with Taqman Fast Universal PCR Master Mix (#4367846, Life Technologies). Data were analyzed by the ddCt method by normalizing the expression of each gene to GAPDH and HPRT for mouse and GAPDH for human and then to the control group. All probes are listed below. • Mouse: EphB3 Mm00802553_m1, Ccl2 Mm00441242_m1, Csf2 Mm01290062_m1, Nos2 Mm00440502_m1, Tnf Mm00443258 m1, Il1b Mm00434228_m1, 116 Mm00446190_m1, GAPDH Mm99999915_g1. • Human: CCL2 Hs00234140_m1, CSF2 Hs00929873 ml, NOS2 Hs01075529_m1, TNF • Hs00174128_m1, IL6 Hs00985639_m1, IL1b Hs01555410_m1, GAPDH Hs02758991_g1."}, "astrocytes [2]": {"tested_on": "astrocytes", "experiment": "Mitochondrial ROS measurement (MitoSOX) in astrocytes", "format": "cell-based, mouse", "details": "induced by stimulation with TNFα and IL-1β", "procedure": "Mitochondrial ROS measurement. 50,000 astrocytes were seeded per well in 96-well black plates and rested for 2 days in complete medium, followed by activation or inhibitor pretreatment for 24 h. MitoSOX red (Thermo Fisher Scientific, #M36008) was used to stain for mitochondrial ROS for 10 min following the manual and the signal was detected on Infinite M1000 PRO Microplate Reader (Tecan). The fluorescent signal was normalized to cell number estimated using CyQUANT cell proliferation assay kit (Invitrogen, #C7026) first and then compared to control group for data analysis."}, "[3]": {"experiment": "Preliminary in vivo pharmacokinetic evaluation, IP, plasma and brain concentrations", "parameters": "species or system Sprague-Dawley rats"}, "[4]": {"tested_on": "neonatal murine astrocytes", "experiment": "Neonatal murine astrocytes activated with TNFα and IL-1β: qPCR and ELISA", "format": "cell-based, mouse", "procedure": "(§1) Mouse primary astrocyte cultures. […] The cell suspension was then cultured at 37° C. in humidified 5% CO2 on poly-L-Lysine (#P4707, Sigma-Aldrich) pre-coated cell culture flasks. Medium was replaced every 3-5 days. The cells reached confluence after 7-10 days. Microglia were separated by shaking the glia culture at 225 rpm at 37° C. for at least 3 h and washing extensively with 1×PBS. Astrocytes were detached by mild trypsinization with Trypsin-EDTA (0.05%) at 37° C. and plated. […] Both cell types were then cultured separately for downstream procedures. […] Finally, microglia and astrocytes of each condition where magnetically separated as before and lysed for downstream gene expression analysis.\nRNA isolation, cDNA synthesis and qPCR. […] Data were analyzed by the ddCt method by normalizing the expression of each gene to GAPDH and HPRT for mouse and GAPDH for human and then to the control group. All probes are listed below. • Mouse: EphB3 Mm00802553_m1, Ccl2 Mm00441242_m1, Csf2 Mm01290062_m1, Nos2 Mm00440502_m1, Tnf Mm00443258 m1, Il1b Mm00434228_m1, 116 Mm00446190_m1, GAPDH Mm99999915_g1. • Human: CCL2 Hs00234140_m1, CSF2 Hs00929873 ml, NOS2 Hs01075529_m1, TNF • Hs00174128_m1, IL6 Hs00985639_m1, IL1b Hs01555410_m1, GAPDH Hs02758991_g1."}, "astrocytes [5]": {"tested_on": "astrocytes", "experiment": "TNFα production in astrocytes (AlphaLISA, astrocyte-microglia co-cultures)", "format": "cell-based, mouse", "details": "primary astrocytes", "procedure": "AlphaLISA. Astrocyte-microglia co-cultures were seeded in 384 well plates pre coated with Poly-L-Lysine at a density of 10^4 cells/well. After 3 days, cells were preincubated with the corresponding compounds 30 minutes before LPS stimulation (0.5 ng/mL Invivogen #tlrl-3pelps) and supernatants were collected after 18 h of incubation. mTNFalpha kit (Perkin Elmer #AL505) was used to measure TNFα in the supernatants following the high sensitivity protocol according to manufacturer's instructions. Briefly, 2 μl of the supernatants or given standards were subsequently mixed with 5 μl of anti-TNFα acceptor beads, 30 minutes after biotinylated antibody anti-TNFα was added after 1 h SA-Donor beads were added and incubated 30 minutes. All incubations were performed at 23° C. in the dark. Fluorescence at 615 nm was then measured using an EnVision-Apha Reader (Perkin Elmer #2105-0010)."}, "[6]": {"tested_on": "PI3K/AKT/mTOR signaling in astrocytes", "experiment": "Western blot of PI3K/AKT/mTOR/NF-κB signaling in primary murine astrocytes", "format": "cell-based, mouse", "procedure": "as §1\nSDS-PAGE and Western blot. […] Membranes were blocked in 10% skimmed milk (#M0841, Lab Scientific) in TBS-T (#IBB-180-2L, Boston BioProducts). Primary antibodies were incubated ON at 4° C. and secondary 30 minutes at RT.\nHRP-conjugated blots were developed using the KwikQuant imaging system and KwikQuant western blot detection kit (#R1004 Kindle Biosciences)."}, "Aqueous solubility": {"experiment": "Aqueous solubility", "format": "physicochemical", "details": "aqueous solution, aqueous buffer; oxalate salt, pH 7.4; read-out: aqueous solubility of the oxalate salt"}, "splenic CD11b+ monocytes": {"tested_on": "splenic CD11b+ monocytes", "experiment": "Monocyte migration assay with astrocyte-conditioned medium", "format": "cell-based, mouse", "details": "ACM from astrocytes pre-treated with compound", "procedure": "Generation of astrocyte-conditioned medium (ACM). […] After 24 h, cells were extensively washed with 1×PBS, and incubated with fresh astrocyte complete medium for 48 h. Supernatants were spun down and kept at −80° C. until tested in migration and neurotoxicity assays.\nMonocyte Migration Assay. Monocytes were purified from spleens from C57BL/6J mice using CD11b Microbeads (#130-049-601, Miltenyi) following the manufacturer's instructions. 100,000 monocytes were seeded in the upper chamber of a 24-well cell culture transwell, with a 5 μm pore size (#3421, Thermo Fisher Scientific), containing 300 μL of astrocyte-conditioned medium (as detailed earlier) in the bottom chamber. After 3 h incubation at 37° C. in 5% CO2, cells were collected from the lower chamber after shaking and accutase solution incubation (#A6964, Sigma-Aldrich) and quantified by FACS."}, "[7]": {"details": "astrocytes activated 30 minutes with TNFα and IL-1β"}, "[8]": {"details": "astrocytes stimulated with TNFα and IL-1β"}}, "note": "Entries after “also recorded” stand apart in the source; their conditions may differ."}
{"smiles": "O=C(Nc1ccccc1Cl)c1cnc2ccc(C3CCNCC3)cn12", "note": "[A38]", "values": [{"measurement": "half-life", "setting": "[1]", "result": "> 5", "unit": "h"}, {"measurement": "microglial expression of Nos2", "setting": "microglia", "result": "no effect"}, {"measurement": "microglial expression of Tnfa", "setting": "microglia", "result": "no effect"}, {"measurement": "mitochondrial production of ROS", "setting": "astrocytes [2]", "result": "decreased"}, {"measurement": "brain Cmax", "setting": "[3]; IP 3 mg/kg in 100% saline, male Sprague-Dawley rats, mono-oxalate salt", "result": 331, "unit": "ng/mL"}, {"measurement": "Pgp substrate", "setting": "[3]; inferred from the brain to plasma ratio", "result": "not a Pgp substrate"}, {"measurement": "Kp", "setting": "[3]; rat, brain/plasma, IP 3 mg/kg, male Sprague-Dawley rats, mono-oxalate salt, read-out: brain to plasma ratio", "result": 1.5}, {"measurement": "Cmax", "setting": "[3]; rat, plasma, IP 3 mg/kg in 100% saline, male Sprague-Dawley rats, mono-oxalate salt", "result": 221, "unit": "ng/mL"}, {"measurement": "half-life", "setting": "[3]; rat, plasma, IP 3 mg/kg in 100% saline, male Sprague-Dawley rats, mono-oxalate salt, read-out: plasma half-life T1/2 (converted)", "result": 2.25, "unit": "h"}, {"measurement": "116 expression in astrocytes (qPCR)", "setting": "[4]", "result": "reduced 116 expression in astrocytes in a dose-dependent manner"}, {"measurement": "production of CCL2 (ELISA)", "setting": "[4]", "result": "decreased"}, {"measurement": "production of IL-6 (ELISA)", "setting": "[4]", "result": "decreased"}, {"measurement": "production of TNFα (ELISA)", "setting": "[4]", "result": "decreased"}, {"measurement": "TNFα production in astrocytes", "setting": "astrocytes [5]", "result": "suppressed TNFα production; also recorded: highly efficient in down-modulating TNF-α production"}, {"measurement": "phosphorylation of AKT", "setting": "[6]; [7]", "result": "suppressed"}, {"measurement": "phosphorylation of p85a, p55a", "setting": "[6]; [7]", "result": "suppressed"}, {"measurement": "NF-κB activation (p65 phosphorylation and nuclear translocation)", "setting": "[6]; [8]", "result": "did not suppress NF-κB activation"}, {"measurement": "S6 phosphorylation", "setting": "[6]; [8]", "result": "suppressed S6 phosphorylation"}, {"measurement": "solubility", "setting": "Aqueous solubility", "result": "> 10000", "unit": "µg/mL"}, {"measurement": "ACM chemoattractant activity", "setting": "splenic CD11b+ monocytes", "result": "reduced ACM neurotoxic and chemoattractant activity"}]}
